# Assay results published in patent US20030206876A1, “Composition” (priority 2000, published 2003).
# Tested on: oral bacteria (production of volatile sulfur compounds from cysteine)
# Test: cysteine challenge method for halitosis (oral malodor) efficacy, VSC response measured with Halimeter
# Format: in vivo
# Description: The ability of low doses of chlorhexidine to combat halitosis (oral malodor) was assessed using the cysteine challenge method. This measures the ability of oral bacteria to produce volatile sulfur compounds (VSC), the major odor component of oral malodor, from cysteine and is correlated with organoleptic evaluation by odor judges. Testing consists of rinsing the mouth with 5 ml of 6 mM cysteine for 30 seconds and measuring the resulting the VSC response (mainly hydrogen sulphide) with a chemical sensor instrument such as the Halimeter. Cysteine challenge testing consisted of the obtaining of an initial baseline VSC determination, the subsequent introduction of the cysteine challenge substrate, measuring the VSC response over a 20 minute period, introducing the test rinse and at set times thereafter, repeating the cysteine challenge for up to 7 hours. Inhibition was assessed quantitatively by the degree of inhibition of VSC production from cysteine by the test agent, chlorhexidine digluconate, as compared to VSC production from cysteine at baseline. Duration of the inhibition was assessed as the time it takes for VSC production with successive cysteine challenges to return to that seen at baseline.
smiles,measurement,setting,value
[H]/N=C(\N/C(=N/[H])NCCCCCCNC(=N)NC(=N)Nc1ccc(Cl)cc1)Nc1ccc(Cl)cc1 [chlorhexidine digluconate],inhibition of production of VSCs at lower concentrations,"chlorhexidine digluconate 0.020, 0.015, 0.0125 and 0.010% by weight of the composition",Similarly advantageous results
same,time after the rinse at which most inhibition of VSC production was seen,"mouthrinse, chlorhexidine digluconate 0.025% (v/v)",two
same,inhibition of production of VSCs from cysteine compared to baseline,"mouthrinse, chlorhexidine digluconate 0.025% (v/v), cysteine challenge 5 ml of 6 mM cysteine for 30 seconds",significantly inhibit
same,duration of the inhibition of VSC production from the initial rinse (gradually decreasing levels),"mouthrinse, chlorhexidine digluconate 0.025% (v/v), successive cysteine challenges for up to 7 hours",over 7 hours
